Assay results published in US20250230193A1, “CYCLIC COMPOUND HAVING SELECTIVE KRAS INHIBITORY EFFECT ON HRAS AND NRAS” (CHUGAI SEIYAKU KABUSHIKI KAISHA, priority 2022, published 2025).

Columns and labels:
[1] = target: GDP-bound HRAS wild-type protein (Homo sapiens, UniProt P01112); experiment: Binding to HRAS by surface plasmon resonance (SPR), Single Cycle Kinetics; conditions: KD ratio HRAS/KRAS, SPR
[2] = target: GDP-bound NRAS wild-type protein (Homo sapiens, UniProt P01111); experiment: Binding to NRAS by surface plasmon resonance (SPR), Single Cycle Kinetics; conditions: KD ratio NRAS/KRAS, SPR
GDP-bound NRAS wild-type protein, sequence (P01111 whole entry): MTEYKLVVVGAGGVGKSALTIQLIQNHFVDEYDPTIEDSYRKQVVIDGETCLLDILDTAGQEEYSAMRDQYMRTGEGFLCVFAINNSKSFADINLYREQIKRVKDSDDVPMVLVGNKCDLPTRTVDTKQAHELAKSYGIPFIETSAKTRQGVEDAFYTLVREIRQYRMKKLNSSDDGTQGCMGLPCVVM

GDP-bound HRAS wild-type protein, sequence (P01112 whole entry): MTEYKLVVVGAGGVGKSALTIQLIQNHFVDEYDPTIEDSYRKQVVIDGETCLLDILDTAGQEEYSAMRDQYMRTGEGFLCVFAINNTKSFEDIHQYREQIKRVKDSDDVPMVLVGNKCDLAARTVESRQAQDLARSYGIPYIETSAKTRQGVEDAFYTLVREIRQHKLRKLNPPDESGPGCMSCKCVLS

Compound	HRAS/KRAS (ratio of KD value with respect to GDP-bound HRAS wild-type protein to KD value with respect to KRAS) [1]	NRAS/KRAS (ratio of KD value with respect to GDP-bound NRAS wild-type protein to KD value with respect to KRAS) [2]
C#CC[C@H]1C(=O)N[C@@H]([C@@H](C)CC)C(=O)N(C)CC(=O)N(C)[C@H]2CCCCN(C2=O)[C@@H](Cc2ccc(C(F)(F)F)cc2)C(=O)N(C)CC(=O)N[C@@H](CCc2cc(F)c(C(F)(F)F)c(F)c2)C(=O)N2C[C@H](OCC)C[C@H]2C(=O)NC2(CCC2)C(=O)N(C)[C@@H](C2CCCC2)C(=O)N(C)[C@H](C(=O)N(C)C)CC(=O)N1C [PP0696]	B (a compound having 3 or more and less than 10 is denoted as B)	B (a compound having 3 or more and less than 10 is denoted as B)
CCO[C@@H]1C[C@H]2C(=O)NC3(CCC3)C(=O)N(C)[C@@H](C3CCCC3)C(=O)N(C)[C@H](C(=O)N(C)C)CC(=O)N(C)[C@@H](CC3CC3)C(=O)N[C@@H]([C@@H](C)CC)C(=O)N(C)CC(=O)N(C)[C@H]3CCCCN(C3=O)[C@@H](Cc3ccc(C(F)(F)F)cc3)C(=O)N(C)CC(=O)N[C@@H](CCc3cc(F)c(C(F)(F)F)c(F)c3)C(=O)N2C1 [PP0697]	C (A compound having a KD ratio of 0.1 or more and less than 3 is denoted as C)	C (A compound having a KD ratio of 0.1 or more and less than 3 is denoted as C)
CCO[C@@H]1C[C@H]2C(=O)NC3(CCC3)C(=O)N(C)[C@@H](C3CCCC3)C(=O)N(C)[C@H](C(=O)N(C)C)CC(=O)N(C)[C@@H](CC3CCC3)C(=O)N[C@@H]([C@@H](C)CC)C(=O)N(C)CC(=O)N(C)[C@H]3CCCCN(C3=O)[C@@H](Cc3ccc(C(F)(F)F)cc3)C(=O)N(C)CC(=O)N[C@@H](CCc3cc(F)c(C(F)(F)F)c(F)c3)C(=O)N2C1 [PP0698]	C (A compound having a KD ratio of 0.1 or more and less than 3 is denoted as C)	C (A compound having a KD ratio of 0.1 or more and less than 3 is denoted as C)
CCO[C@@H]1C[C@H]2C(=O)NC3(CCC3)C(=O)N(C)[C@@H](C3CCCC3)C(=O)N(C)[C@H](C(=O)N(C)C)CC(=O)N(C)[C@@H](CC(C)(C)C)C(=O)N[C@@H]([C@@H](C)CC)C(=O)N(C)CC(=O)N(C)[C@H]3CCCCN(C3=O)[C@@H](Cc3ccc(C(F)(F)F)cc3)C(=O)N(C)CC(=O)N[C@@H](CCc3cc(F)c(C(F)(F)F)c(F)c3)C(=O)N2C1 [PP0699]	C (A compound having a KD ratio of 0.1 or more and less than 3 is denoted as C)	C (A compound having a KD ratio of 0.1 or more and less than 3 is denoted as C)
CCO[C@@H]1C[C@H]2C(=O)NC3(CCC3)C(=O)N(C)[C@@H](C3CCCC3)C(=O)N(C)[C@H](C(=O)N(C)C)CC(=O)N(C)[C@@H](CC3CCCC3)C(=O)N[C@@H]([C@@H](C)CC)C(=O)N(C)CC(=O)N(C)[C@H]3CCCCN(C3=O)[C@@H](Cc3ccc(C(F)(F)F)cc3)C(=O)N(C)CC(=O)N[C@@H](CCc3cc(F)c(C(F)(F)F)c(F)c3)C(=O)N2C1 [PP0700]	B (a compound having 3 or more and less than 10 is denoted as B)	C (A compound having a KD ratio of 0.1 or more and less than 3 is denoted as C)
CCO[C@@H]1C[C@H]2C(=O)NC3(CCC3)C(=O)N(C)[C@@H](C3CCCC3)C(=O)N(C)[C@H](C(=O)N(C)C)CC(=O)N(C)[C@@H](CC3CCCCC3)C(=O)N[C@@H]([C@@H](C)CC)C(=O)N(C)CC(=O)N(C)[C@H]3CCCCN(C3=O)[C@@H](Cc3ccc(C(F)(F)F)cc3)C(=O)N(C)CC(=O)N[C@@H](CCc3cc(F)c(C(F)(F)F)c(F)c3)C(=O)N2C1 [PP0701]	B (a compound having 3 or more and less than 10 is denoted as B)	C (A compound having a KD ratio of 0.1 or more and less than 3 is denoted as C)
CCO[C@@H]1C[C@H]2C(=O)NC3(CCC3)C(=O)N(C)[C@@H](C3CCCC3)C(=O)N(C)[C@H](C(=O)N(C)C)CC(=O)N(C)[C@@H](Cc3cccnc3)C(=O)N[C@@H]([C@@H](C)CC)C(=O)N(C)CC(=O)N(C)[C@H]3CCCCN(C3=O)[C@@H](Cc3ccc(C(F)(F)F)cc3)C(=O)N(C)CC(=O)N[C@@H](CCc3cc(F)c(C(F)(F)F)c(F)c3)C(=O)N2C1 [PP0703]	B (a compound having 3 or more and less than 10 is denoted as B)	C (A compound having a KD ratio of 0.1 or more and less than 3 is denoted as C)
CCO[C@@H]1C[C@H]2C(=O)NC3(CCC3)C(=O)N(C)[C@@H](C3CCCC3)C(=O)N(C)[C@H](C(=O)N(C)C)CC(=O)N(C)[C@@H](COC)C(=O)N[C@@H]([C@@H](C)CC)C(=O)N(C)CC(=O)N(C)[C@H]3CCCCN(C3=O)[C@@H](Cc3ccc(C(F)(F)F)cc3)C(=O)N(C)CC(=O)N[C@@H](CCc3cc(F)c(C(F)(F)F)c(F)c3)C(=O)N2C1 [PP0704]	C (A compound having a KD ratio of 0.1 or more and less than 3 is denoted as C)	C (A compound having a KD ratio of 0.1 or more and less than 3 is denoted as C)
CCO[C@@H]1C[C@H]2C(=O)NC3(CCC3)C(=O)N(C)[C@@H](C3CCCC3)C(=O)N(C)[C@H](C(=O)N(C)C)CC(=O)N(C)[C@@H](CCOC)C(=O)N[C@@H]([C@@H](C)CC)C(=O)N(C)CC(=O)N(C)[C@H]3CCCCN(C3=O)[C@@H](Cc3ccc(C(F)(F)F)cc3)C(=O)N(C)CC(=O)N[C@@H](CCc3cc(F)c(C(F)(F)F)c(F)c3)C(=O)N2C1 [PP0705]	C (A compound having a KD ratio of 0.1 or more and less than 3 is denoted as C)	C (A compound having a KD ratio of 0.1 or more and less than 3 is denoted as C)
CCO[C@@H]1C[C@H]2C(=O)NC3(CCC3)C(=O)N(C)[C@@H](C3CCCC3)C(=O)N(C)[C@H](C(=O)N(C)C)CC(=O)N(C)C[C@@H](C)C(=O)N[C@@H]([C@@H](C)CC)C(=O)N(C)CC(=O)N(C)[C@H]3CCCCN(C3=O)[C@@H](Cc3ccc(C(F)(F)F)cc3)C(=O)N(C)CC(=O)N[C@@H](CCc3cc(F)c(C(F)(F)F)c(F)c3)C(=O)N2C1 [PP0706]	B (a compound having 3 or more and less than 10 is denoted as B)	B (a compound having 3 or more and less than 10 is denoted as B)
CCO[C@@H]1C[C@H]2C(=O)NC3(CCC3)C(=O)N(C)[C@@H](C3CCCC3)C(=O)N(C)[C@H](C(=O)N3CCOCC3)CC(=O)N(C)[C@@H](CC)C(=O)N[C@@H]([C@@H](C)CC)C(=O)N(C)CC(=O)N(C)[C@H]3CCCCN(C3=O)[C@@H](Cc3ccc(C(F)(F)F)cc3)C(=O)N(C)CC(=O)N[C@@H](CCc3cc(F)c(C(F)(F)F)c(F)c3)C(=O)N2C1 [PP0708]	B (a compound having 3 or more and less than 10 is denoted as B)	B (a compound having 3 or more and less than 10 is denoted as B)
CCC[C@H]1C(=O)N[C@@H]([C@@H](C)CC)C(=O)N(C)CC(=O)N(C)[C@H]2CCCCN(C2=O)[C@@H](Cc2ccc(C(F)(F)F)cc2)C(=O)N(C)CC(=O)N[C@@H](CCc2cc(F)c(C(F)(F)F)c(F)c2)C(=O)N2C[C@H](OCC)C[C@H]2C(=O)NC2(CCC2)C(=O)N(C)[C@@H](C2CCCC2)C(=O)N(C)[C@H](C(=O)N2CCOCC2)CC(=O)N1C [PP0709]	B (a compound having 3 or more and less than 10 is denoted as B)	C (A compound having a KD ratio of 0.1 or more and less than 3 is denoted as C)
C=CC[C@H]1C(=O)N[C@@H]([C@@H](C)CC)C(=O)N(C)CC(=O)N(C)[C@H]2CCCCN(C2=O)[C@@H](Cc2ccc(C(F)(F)F)cc2)C(=O)N(C)CC(=O)N[C@@H](CCc2cc(F)c(C(F)(F)F)c(F)c2)C(=O)N2C[C@H](OCC)C[C@H]2C(=O)NC2(CCC2)C(=O)N(C)[C@@H](C2CCCC2)C(=O)N(C)[C@H](C(=O)N2CCOCC2)CC(=O)N1C [PP0710]	B (a compound having 3 or more and less than 10 is denoted as B)	C (A compound having a KD ratio of 0.1 or more and less than 3 is denoted as C)
C#CC[C@H]1C(=O)N[C@@H]([C@@H](C)CC)C(=O)N(C)CC(=O)N(C)[C@H]2CCCCN(C2=O)[C@@H](Cc2ccc(C(F)(F)F)cc2)C(=O)N(C)CC(=O)N[C@@H](CCc2cc(F)c(C(F)(F)F)c(F)c2)C(=O)N2C[C@H](OCC)C[C@H]2C(=O)NC2(CCC2)C(=O)N(C)[C@@H](C2CCCC2)C(=O)N(C)[C@H](C(=O)N2CCOCC2)CC(=O)N1C [PP0711]	B (a compound having 3 or more and less than 10 is denoted as B)	C (A compound having a KD ratio of 0.1 or more and less than 3 is denoted as C)
CCO[C@@H]1C[C@H]2C(=O)NC3(CCC3)C(=O)N(C)[C@@H](C3CCCC3)C(=O)N(C)[C@H](C(=O)N3CCOCC3)CC(=O)N(C)[C@@H](CC3CC3)C(=O)N[C@@H]([C@@H](C)CC)C(=O)N(C)CC(=O)N(C)[C@H]3CCCCN(C3=O)[C@@H](Cc3ccc(C(F)(F)F)cc3)C(=O)N(C)CC(=O)N[C@@H](CCc3cc(F)c(C(F)(F)F)c(F)c3)C(=O)N2C1 [PP0712]	C (A compound having a KD ratio of 0.1 or more and less than 3 is denoted as C)	C (A compound having a KD ratio of 0.1 or more and less than 3 is denoted as C)
